Experiment [1] addresses T1, Acetylcholinesterase (Bos taurus, UniProt P23795).
T1 sequence (P23795 whole entry): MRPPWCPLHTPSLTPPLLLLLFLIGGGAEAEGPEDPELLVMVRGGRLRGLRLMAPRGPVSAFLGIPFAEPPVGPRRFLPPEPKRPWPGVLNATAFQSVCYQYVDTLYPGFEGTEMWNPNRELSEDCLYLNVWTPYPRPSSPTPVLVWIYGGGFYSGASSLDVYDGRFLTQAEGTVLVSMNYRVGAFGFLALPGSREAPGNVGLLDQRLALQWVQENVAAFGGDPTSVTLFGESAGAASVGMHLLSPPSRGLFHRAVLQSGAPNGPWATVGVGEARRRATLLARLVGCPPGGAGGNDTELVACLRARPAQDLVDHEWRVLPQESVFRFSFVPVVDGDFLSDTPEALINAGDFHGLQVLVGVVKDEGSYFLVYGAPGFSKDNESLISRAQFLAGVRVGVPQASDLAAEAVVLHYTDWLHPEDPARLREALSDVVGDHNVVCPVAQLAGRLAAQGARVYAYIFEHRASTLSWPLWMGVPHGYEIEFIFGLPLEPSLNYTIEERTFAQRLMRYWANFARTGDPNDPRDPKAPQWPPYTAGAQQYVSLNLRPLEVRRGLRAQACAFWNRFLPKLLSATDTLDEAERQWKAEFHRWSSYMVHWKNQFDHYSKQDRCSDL
The experiment is described as follows: Inhibition of bovine erythrocyte acetylcholinesterase using acetylthiocholine iodide as substrate after 15 mins by Ellman's method. (Ellman's reagent forms a yellow product with free thiols.)

Experiment [2] deals with T2, Acetylcholinesterase (Electrophorus electricus, UniProt O42275). Nature of the experiment: Inhibition of electric eel acetylcholinesterase using acetylcholine chloride as substrate measured every 1 min by chemiluminescent assay.
T2 sequence (O42275 whole entry): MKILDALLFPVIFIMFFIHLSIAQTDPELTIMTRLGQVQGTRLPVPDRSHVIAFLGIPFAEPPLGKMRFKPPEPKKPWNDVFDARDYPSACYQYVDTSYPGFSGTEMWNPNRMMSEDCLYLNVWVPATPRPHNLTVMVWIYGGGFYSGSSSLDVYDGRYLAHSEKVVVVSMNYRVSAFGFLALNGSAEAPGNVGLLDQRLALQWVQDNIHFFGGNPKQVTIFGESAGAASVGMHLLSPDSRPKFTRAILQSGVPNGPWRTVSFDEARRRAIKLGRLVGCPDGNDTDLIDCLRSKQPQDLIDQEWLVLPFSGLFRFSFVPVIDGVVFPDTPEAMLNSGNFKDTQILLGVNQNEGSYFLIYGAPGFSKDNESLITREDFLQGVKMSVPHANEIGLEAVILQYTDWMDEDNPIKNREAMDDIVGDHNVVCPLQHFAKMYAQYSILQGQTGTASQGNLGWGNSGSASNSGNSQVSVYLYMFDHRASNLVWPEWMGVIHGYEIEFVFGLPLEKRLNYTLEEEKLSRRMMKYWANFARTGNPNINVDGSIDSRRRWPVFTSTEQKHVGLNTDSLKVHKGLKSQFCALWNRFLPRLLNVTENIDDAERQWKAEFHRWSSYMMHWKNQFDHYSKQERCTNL
In the next experiment the target is Cholinesterase (Equus caballus, UniProt P81908). The experiment is described as follows: Inhibition of equine serum BuChE after 15 mins by spectrophotometric analysis.
Cholinesterase, sequence (P81908 whole entry): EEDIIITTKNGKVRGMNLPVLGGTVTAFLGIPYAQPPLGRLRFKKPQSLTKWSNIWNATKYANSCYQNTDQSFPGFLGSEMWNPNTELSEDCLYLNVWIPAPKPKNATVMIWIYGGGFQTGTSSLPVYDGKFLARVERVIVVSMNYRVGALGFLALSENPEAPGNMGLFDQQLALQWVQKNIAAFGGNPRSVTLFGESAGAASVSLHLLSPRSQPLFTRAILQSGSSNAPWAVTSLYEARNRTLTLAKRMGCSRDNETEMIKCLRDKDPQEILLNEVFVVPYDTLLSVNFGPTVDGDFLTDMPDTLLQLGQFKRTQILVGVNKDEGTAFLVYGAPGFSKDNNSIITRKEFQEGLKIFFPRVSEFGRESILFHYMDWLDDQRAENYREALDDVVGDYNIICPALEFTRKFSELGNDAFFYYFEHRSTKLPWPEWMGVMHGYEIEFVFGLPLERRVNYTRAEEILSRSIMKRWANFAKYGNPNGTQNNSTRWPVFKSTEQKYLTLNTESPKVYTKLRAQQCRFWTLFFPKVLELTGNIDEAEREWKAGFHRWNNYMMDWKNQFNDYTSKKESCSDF
Experiment [3] has as its target T2, Acetylcholinesterase. The experiment is described as follows: Inhibition of electric eel acetylcholinesterase using acetylthiocholine chloride as substrate preincubated for 15 mins followed by substrate addition measured every 1 min by spectrophotometric analysis.
Experiment [4] has as its target T3, Acetylcholinesterase (Homo sapiens, UniProt P22303). Nature of the experiment: Inhibition of acetylcholinesterase (unknown origin) by Ellman's method.
Experiment [5] deals with T4, Acetylcholinesterase (Rattus norvegicus, UniProt P37136).
T4 sequence (P37136 whole entry): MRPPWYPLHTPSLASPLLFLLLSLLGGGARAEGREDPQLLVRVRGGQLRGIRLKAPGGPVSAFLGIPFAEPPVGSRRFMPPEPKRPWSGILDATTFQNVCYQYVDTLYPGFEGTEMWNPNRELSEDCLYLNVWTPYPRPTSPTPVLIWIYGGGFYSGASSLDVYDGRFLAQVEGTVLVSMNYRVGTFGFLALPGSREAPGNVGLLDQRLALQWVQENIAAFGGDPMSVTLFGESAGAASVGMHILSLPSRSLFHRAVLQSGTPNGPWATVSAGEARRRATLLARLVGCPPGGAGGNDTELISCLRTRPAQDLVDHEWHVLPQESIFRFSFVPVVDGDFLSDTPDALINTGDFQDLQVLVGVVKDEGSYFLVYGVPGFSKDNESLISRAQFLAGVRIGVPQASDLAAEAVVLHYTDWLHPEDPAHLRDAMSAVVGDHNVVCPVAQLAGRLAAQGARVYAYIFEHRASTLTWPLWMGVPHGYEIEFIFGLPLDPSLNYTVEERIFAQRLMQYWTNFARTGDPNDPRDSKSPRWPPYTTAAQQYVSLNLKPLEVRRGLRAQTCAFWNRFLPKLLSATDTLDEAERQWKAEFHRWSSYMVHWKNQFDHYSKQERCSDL
The experiment is described as follows: Inhibition of rat brain AChE.

Experiment [6] addresses T3, Acetylcholinesterase. Nature of the experiment: Inhibition of acetylcholinesterase (unknown origin).

T3 sequence (P22303 whole entry): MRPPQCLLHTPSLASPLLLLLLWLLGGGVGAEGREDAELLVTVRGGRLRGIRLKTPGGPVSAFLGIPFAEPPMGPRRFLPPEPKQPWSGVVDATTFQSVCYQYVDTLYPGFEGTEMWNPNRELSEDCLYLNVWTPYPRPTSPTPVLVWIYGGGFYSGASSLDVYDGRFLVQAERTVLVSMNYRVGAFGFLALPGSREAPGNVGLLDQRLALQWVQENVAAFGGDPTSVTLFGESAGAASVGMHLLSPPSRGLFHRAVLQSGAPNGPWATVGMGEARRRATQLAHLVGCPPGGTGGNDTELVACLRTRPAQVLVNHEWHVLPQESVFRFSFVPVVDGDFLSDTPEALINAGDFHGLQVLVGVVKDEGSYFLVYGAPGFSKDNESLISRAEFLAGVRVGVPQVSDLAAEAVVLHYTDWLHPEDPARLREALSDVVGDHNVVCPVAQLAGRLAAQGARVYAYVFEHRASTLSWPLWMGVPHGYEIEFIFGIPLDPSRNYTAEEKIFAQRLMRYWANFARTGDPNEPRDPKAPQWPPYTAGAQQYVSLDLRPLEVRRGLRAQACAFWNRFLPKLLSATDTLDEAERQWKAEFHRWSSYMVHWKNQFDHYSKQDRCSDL

With `Cc1nn(-c2ccccc2)c2nc3nc4c(c(N)c3cc12)CCCC4`, 6.4 µM corresponded to half-maximal inhibition at Acetylcholinesterase [1] (IC50).

Consider `O=C1CCN(Cc2ccccc2)C/C1=C\c1c[nH]c2ccccc12`, for which half-maximal inhibition against Acetylcholinesterase [2] (IC50) required 8 µM. Take `COc1cc2c3c(c1OC)/C1=C/C[C@H](O)C[C@@H](O)[C@H](O1)[C@@H]3N(C)CC2`: the half-maximal inhibitory concentration (IC50) (in general, the concentration that inhibits the measured activity by half) against Cholinesterase amounted to 13.4 µM; on Acetylcholinesterase [3], 0.72 µM. Turning to `CCn1c(=O)n(C)s/c1=N\CCC1CCN(Cc2ccccc2)CC1`, the IC50 on Acetylcholinesterase [4] turned out to be 0.14 µM.

The molecule `CC(=O)CCCCCCCCCCCC[C@H]1CC[C@@H](OC(=O)OC(C)(C)C)[C@@H](C)N1` came in with an IC50 against Acetylcholinesterase [5] of 15.1 µM.

Molecule `CCOC(=O)C1=C(C)Oc2nc3c(c(N)c2C1c1ccc(OC)cc1)CCCC3` (centres undefined) gave an IC50 against Acetylcholinesterase [6] of 0.868 µM. Same read-out and setting: the value for `CCOC(=O)C1=C(C)Oc2nc3c(c(N)c2C1c1ccc(C)cc1)CCCC3` (centres undefined) was 0.182 µM. The molecule `CC(=O)CCCCCCCCCCCC[C@H]1CC[C@@H](OC(C)=O)[C@@H](C)N1` yielded an IC50 on Acetylcholinesterase [5] of 7.32 µM.

The values above are taken from ChEMBL document CHEMBL3085748, “Acetylcholinesterase inhibitors as Alzheimer therapy: from nerve toxins to neuroprotection” (Eur J Med Chem, 2013).
